In article PMC11240878, “Synthesis, enzyme inhibition assay, and molecular modeling study of novel pyrazolines linked to 4-methylsulfonylphenyl scaffold: antitumor activity and cell cycle analysis” (RSC Advances, 2024):

How the values were obtained:
Assay type in all cases: cell-based, human
[1] = test system: RPMI-8226; assay: NCI single-dose GI%, leukemia; details: RPMI-8226, leukemia; 10.0 μM in one dose
[2] = test system: PC-3; assay: NCI single-dose GI%, prostate; details: PC-3, prostate; 10.0 μM in one dose
[3] = test system: T-47D; assay: NCI single-dose GI%, breast; details: 10.0 μM in one dose
[4] = test system: U251; assay: NCI single-dose GI%, CNS; details: 10.0 μM in one dose
[5] = test system: HCT-15; assay: NCI single-dose GI%, colon; details: HCT-15, colon; 10.0 μM in one dose
[6] = test system: HT29; assay: NCI single-dose GI%, colon; details: 10.0 μM in one dose
[7] = test system: SF-295; assay: NCI single-dose GI%, CNS; details: SF-295, CNS; 10.0 μM in one dose
[8] = test system: HCT-116; assay: NCI single-dose GI%, colon; details: HCT-116, colon; 10.0 μM in one dose
[9] = test system: NCI-H226; assay: NCI single-dose GI%, NSC lung; details: 10.0 μM in one dose
[10] = test system: SF-539; assay: NCI single-dose GI%, CNS; details: SF-539, CNS; 10.0 μM in one dose
[11] = test system: MDA-MB-231/ATCC; assay: NCI single-dose GI%, breast; details: 10.0 μM in one dose
[12] = test system: LOX IMVI; assay: NCI single-dose GI%, melanoma; details: 10.0 μM in one dose
[13] = test system: SR; assay: NCI single-dose GI%, leukemia; details: 10.0 μM in one dose
[14] = test system: MDA-MB-468; assay: NCI single-dose GI%, breast; details: MDA-MB-468, breast; 10.0 μM in one dose
[15] = test system: A498; assay: NCI single-dose GI%, renal; details: 10.0 μM in one dose
[16] = test system: EKVX; assay: NCI single-dose GI%, NSC lung; details: 10.0 μM in one dose
[17] = test system: 59 cancer cell lines; assay: NCI 59 cancer cell line panel, single dose; details: for MG% (mean growth percent): 10 μM single dose, 59 cell lines
[18] = test system: MOLT-4; assay: NCI single-dose GI%, leukemia; details: MOLT-4, leukemia; 10.0 μM in one dose
[19] = test system: DU-145; assay: NCI single-dose GI%, prostate; details: DU-145, prostate; 10.0 μM in one dose
[20] = test system: NCI-H23; assay: NCI single-dose GI%, NSC lung; details: 10.0 μM in one dose

Cc1ccc(NC(=O)c2ccc(CN3CCN(C)CC3)cc2)cc1Nc1nccc(-c2cccnc2)n1 [Imatinib, reference compound]
GI% [1]: 12.6% | GI% [2]: 10.6% | GI% [3]: 18.6% | GI% [4]: 10.6% | GI% [5]: 11.5% | GI% [6]: 47.1% | GI% [7]: 15.1% | GI% [8]: 18.6% | GI% [9]: 10.6% | GI% [10]: 24.5% | GI% [11]: 11.2% | GI% [12]: 11.6% | GI% [13]: 14.6% | GI% [14]: 29.1% | GI% [15]: 13.7% | GI% [16]: 15.7% | MG% (mean growth percent) [17]: 92.62% | MG% (mean growth percent) ([17]; listed as imatinib): 92.62% | GI% range, CNS cancer ([17]; CNS cancer subpanel, 10 μM): 11–25% | GI% range, NSCLC ([17]; NSCLC subpanel, 10 μM): 11–17% | GI% range against most of the cancer cell lines tested ([17]; all subpanels, 10 μM): < 10–47% | GI% range, breast cancer ([17]; breast cancer subpanel, 10 μM): 11–29% | GI% range, colon cancer ([17]; colon cancer subpanel, 10 μM): 12–47% | GI% range, leukemia ([17]; leukemia subpanel, 10 μM): 13–18% | GI% range, melanoma ([17]; melanoma subpanel, 10 μM): 12–22% | GI% range, ovarian cancer ([17]; ovarian cancer subpanel, 10 μM): < 10% | GI% range, prostate cancer ([17]; prostate cancer subpanel, 10 μM): 11–14% | GI% range, renal cancer ([17]; renal cancer subpanel, 10 μM): < 10–14% | GI% [18]: 18% | GI% [19]: 14.4% | GI% [20]: 17.1%
